# Reference: patent US11890288B2, “Sulfonamide or sulfinamide compound having effect of inducing BRD4 protein degradation and pharmaceutical use thereof” (MITSUBISHI TANABE PHARMA CORPORATION, priority 2020, dated 2024)
# Legend:
# [1] = test system: human prostate cancer LNCaP cells; assay: Cytotoxic action on LNCaP cells (WST-8, 96 hr); format: cell-based; settings: 96 hr culture
# Protocol: The cytotoxic action of the compound of the present invention against human cancer cells was evaluated in vitro. In this experiment, (+)-JQ1 (Nature volume 468, pages 1067-1073 (23 Dec. 2010)) known to have an inhibitory activity on the binding of BRD4 protein and a ligand therefor was used as a positive control drug. Respective cells were suspended in 10% FBS/RPMI1640, seeded in a 96 well plate and cultured at 5% CO2, 37° C. overnight. A test compound dissolved in DMSO was diluted with 10% FBS/RPMI1640 and added and the cells were further cultured for 96 hr. After culturing, the viable cell number was measured using a cell number measurement WST-8 kit (Kishida Chemical Co., Ltd.). As a control, the measurement was performed under conditions free of the test compound. The cytotoxic activity of the compound of the present invention against human prostate cancer LNCaP cells is shown in IC50 value in Table 1. The IC50 value is a concentration of the compound showing 50% cell survival rate when the cell survival rate thereof under compound untreated condition is 100%. It was calculated from the straight line connecting the cell survival rate at two points enclosing the 50% cell survival rate and the compound concentration. In addition, the cytotoxic activity against respective cancer cells of human acute myeloid leukemia MV-4-11 cell, human chronic myeloid leukemia K562 cell, human multiple myeloma MM.1S cell, human diffuse large B-cell lymphoma SU-DHL-6 cell, human T-cell leukemia Jurkat cells, human Burkitt lymphoma Raji cell, human castration-resistant prostate cancer PC-3 cell, human AR-V7 positive castration-resistant prostate cancer 22Rv1 cell, human ovarian cancer A2780 cell, human cisplatin-resistant ovarian cancer SK-OV-03 cell, human bladder cancer 5637 cell, human breast cancer ZR-75-1 cell, human triple negative breast cancer MDA-MB-231 cell, human uterus cervix cancer HeLa cell, human uterine sarcoma MES-SA cell, human stomach cancer SNU-16 cell, human non-small cell lung cancer NCI-H2126 cell, human EGFRT790M mutation-positive non-small cell lung cancer NCI-H1975 cell, human small cell lung cancer NCI-H82 cell, human large cell lung cancer NCI-H460 cell, human colon cancer HCT116 cell, human glioma U-87 MG cell, human pancreatic cancer BxPC-3 cell, human liver cancer HLF cell, human bile duct cancer HuCCT1 cell, human renal cell cancer 786-O cell, and human fibrosarcoma HT1080 cell is shown in IC50 value in Table 2.
# BRD4 protein = BRD4 protein (Homo sapiens (Human), UniProt O60885); assay: BRD4 protein degradation inducing action in LNCaP cells (immunofluorescence, 6 hr); format: cell-based; settings: anti-BRD4 fluorescence intensity
# Protocol: The degradation inducing action of the compound of the present invention on BRD4 proteins in cancer cells was evaluated in vitro using human prostate cancer LNCaP cells. LNCaP cells were suspended in 10% FBS/RPMI1640, seeded in a 96 well Cell carrier plate (Perkin Elmer) and cultured at 5% CO2, 37° C. overnight. A test compound dissolved in DMSO was diluted with 10% FBS/RPMI1640 and added and the cells were further cultured for 6 hr. After culturing, the cells were immobilized with 4% para-formaldehyde/PBS and further subjected to a permeation treatment with 0.25% Triton X-100/PBS. Thereafter, the cells were blocked with 10% BSA/PBS, Anti-BRD4 (Sigma-Aldrich) solution was added and the cells were incubated at 4° C. overnight. Furthermore, Goat anti-Rabbit IgG(H+L) Cross-Adsorbed Secondary Antibody, Alexa Fluor 546 (Thermo Fisher Scientific) solution, 0.5 μg/mL Hoechst 33342 (Sigma-Aldrich), and 14 μM Acti-Stain 555 Fluorescent Phalloidin (Cytoskeleton) were added. After incubation for 1 hr, BRD4 protein amount was measured by Operetta (Perkin Elmer) as fluorescence intensity (excitation: 560 nm, emission: 572 nm). The BRD4 protein degradation inducing activity of the compound of the present invention in LNCaP cells is shown in DC50 value in Table 3. The DC50 value is a concentration of the compound showing 50% fluorescence intensity when the fluorescence intensity thereof under compound untreated condition is 100%. It was calculated from the straight line connecting the fluorescence intensity at two points enclosing the 50% fluorescence intensity and the compound concentration.
Structure (SMILES),IC50 [1],DC50 (BRD4 protein)
"COC(=O)C[C@@H]1N=C(c2ccc(-c3cnc(C(=O)NCc4ccc(S(=O)(=O)Nc5ccc(C)c6c(C#N)c[nH]c56)cc4)cn3)cc2)c2c(sc(C)c2C)-n2c(C)nnc21 [Example 65, methyl [(6S)-4-(4-{5-[({4-[(3-cyano-4-methyl-1H-indol-7-yl)sulfamoyl]phenyl}methyl)carbamoyl]pyrazin-2-yl}phenyl)-2,3,9-trimethyl-6H-thieno[3,2-f][1,2,4]triazolo[4,3-a][1,4]diazepin-6-yl]acetate]",0.071 nM,0.036 nM
"COC(=O)C[C@@H]1N=C(c2ccc(-c3ccc(C(=O)N[C@H](C)c4ccc(S(=O)(=O)Nc5ccc(C)c6c(C#N)c[nH]c56)cc4)c(F)c3)cc2)c2c(sc(C)c2C)-n2c(C)nnc21 [Example 69, methyl [(6S)-4-(4′-{[(1R)-1-{4-[(3-cyano-4-methyl-1H-indol-7-yl)sulfamoyl]phenyl}ethyl]carbamoyl}-3′-fluoro[1,1′-biphenyl]-4-yl)-2,3,9-trimethyl-6H-thieno[3,2-f][1,2,4]triazolo[4,3-a][1,4]diazepin-6-yl]acetate]",0.12 nM,0.056 nM
"COC(=O)C[C@@H]1N=C(c2ccc(-c3ccc(C(=O)N[C@H](C)c4ccc(S(=O)(=O)Nc5ccc(C)c6c(C#N)c[nH]c56)cc4)c(Cl)c3)cc2)c2c(sc(C)c2C)-n2c(C)nnc21 [Example 70, methyl [(6S)-4-(3′-chloro-4′-{[(1R)-1-{4-[(3-cyano-4-methyl-1H-indol-7-yl)sulfamoyl]phenyl}ethyl]carbamoyl}[1,1′-biphenyl]-4-yl)-2,3,9-trimethyl-6H-thieno[3,2-f][1,2,4]triazolo[4,3-a][1,4]diazepin-6-yl]acetate]",0.23 nM,0.13 nM
"Cc1sc2c(c1C)C(c1ccc(-c3cc(Cl)c(C(=O)NCc4ccc(S(=O)(=O)Nc5ccc(C)c6c(C#N)c[nH]c56)cc4)cc3F)cc1)=N[C@@H](C)c1nnc(C)n1-2 [Example 71, 5-chloro-N-({4-[(3-cyano-4-methyl-1H-indol-7-yl)sulfamoyl]phenyl}methyl)-2-fluoro-4′-[(6S)-2,3,6,9-tetramethyl-6H-thieno[3,2-f][1,2,4]triazolo[4,3-a][1,4]diazepin-4-yl][1,1′-biphenyl]-4-carboxamide]",0.61 nM,0.32 nM
"Cc1sc2c(c1C)C(c1ccc(-c3cc(F)c(C(=O)NCc4ccc(S(=O)(=O)Nc5ccc(C)c6c(C#N)c[nH]c56)cc4)c(Cl)c3)cc1)=N[C@@H](C)c1nnc(C)n1-2 [Example 72, 3-chloro-N-({4-[(3-cyano-4-methyl-1H-indol-7-yl)sulfamoyl]phenyl}methyl)-5-fluoro-4′-[(6S)-2,3,6,9-tetramethyl-6H-thieno[3,2-f][1,2,4]triazolo[4,3-a][1,4]diazepin-4-yl][1,1′-biphenyl]-4-carboxamide]",5.5 nM,65 nM
"Cc1sc2c(c1C)C(c1ccc(-c3ccc(C(=O)NCc4ccc(S(=O)(=O)Nc5ccc(C)c6c(C#N)c[nH]c56)cc4)cc3)cc1)=N[C@@H](CC#N)c1nnc(C)n1-2 [Example 73, N-({4-[(3-cyano-4-methyl-1H-indol-7-yl)sulfamoyl]phenyl}methyl)-4′-[(6S)-6-(cyanomethyl)-2,3,9-trimethyl-6H-thieno[3,2-f][1,2,4]triazolo[4,3-a][1,4]diazepin-4-yl][1,1-biphenyl]-4-carboxamide]",1.7 nM,0.75 nM
"COC(=O)C[C@@H]1N=C(c2ccc(-c3ccc(C(=O)NCc4ccc(S(=O)(=O)Nc5ccc(C)c6c(C#N)c[nH]c56)cc4)cc3C)cc2)c2c(sc(C)c2C)-n2c(C)nnc21 [Example 75, methyl [(6S)-4-{4′-[({4-[(3-cyano-4-methyl-1H-indol-7-yl)sulfamoyl]phenyl}methyl)carbamoyl]-2′-methyl[1,1′-biphenyl]-4-yl}-2,3,9-trimethyl-6H-thieno[3,2-f][1,2,4]triazolo[4,3-a][1,4]diazepin-6-yl]acetate]",0.47 nM,0.32 nM
"COC(=O)C[C@@H]1N=C(c2ccc(-c3cnc(C(=O)NCc4ccc(S(=O)(=O)Nc5ccc(C)c6c(C#N)c[nH]c56)cc4)c(F)c3)cc2)c2c(sc(C)c2C)-n2c(C)nnc21 [Example 77, methyl [(6S)-4-(4-{6-[({4-[(3-cyano-4-methyl-1H-indol-7-yl)sulfamoyl]phenyl}methyl)carbamoyl]-5-fluoropyridin-3-yl}phenyl)-2,3,9-trimethyl-6H-thieno[3,2-f][1,2,4]triazolo[4,3-a][1,4]diazepin-6-yl]acetate]",0.16 nM,0.048 nM
"COC(=O)C[C@@H]1N=C(c2ccc(-c3cc(F)c(C(=O)NCc4ccc(S(=O)(=O)Nc5ccc(C)c6c(C#N)c[nH]c56)cc4)cc3F)cc2)c2c(sc(C)c2C)-n2c(C)nnc21 [Example 82, methyl [(6S)-4-{4′-[({4-[(3-cyano-4-methyl-1H-indol-7-yl)sulfamoyl]phenyl}methyl)carbamoyl]-2′,5′-difluoro[1,1′-biphenyl]-4-yl}-2,3,9-trimethyl-6H-thieno[3,2-f][1,2,4]triazolo[4,3-a][1,4]diazepin-6-yl]acetate]",0.27 nM,0.25 nM
"COC(=O)C[C@@H]1N=C(c2ccc(-c3cc(C)c(C(=O)NCc4ccc(S(=O)(=O)Nc5ccc(C)c6c(C#N)c[nH]c56)cc4)cc3F)cc2)c2c(sc(C)c2C)-n2c(C)nnc21 [Example 83, methyl [(6S)-4-{4′-[({4-[(3-cyano-4-methyl-1H-indol-7-yl)sulfamoyl]phenyl}methyl)carbamoyl]-2′-fluoro-5′-methyl[1,1′-biphenyl]-4-yl}-2,3,9-trimethyl-6H-thieno[3,2-f][1,2,4]triazolo[4,3-a][1,4]diazepin-6-yl]acetate]",0.33 nM,0.25 nM
"COC(=O)C[C@@H]1N=C(c2ccc(-c3ccc(C(=O)N[C@H](C)c4ccc(S(=O)(=O)Nc5ccc(C)c6c(C#N)c[nH]c56)cc4)cc3Cl)cc2)c2c(sc(C)c2C)-n2c(C)nnc21 [Example 84, methyl [(6S)-4-(2′-chloro-4′-{[(1R)-1-{4-[(3-cyano-4-methyl-1H-indol-7-yl)sulfamoyl]phenyl}ethyl]carbamoyl}[1,1′-biphenyl]-4-yl)-2,3,9-trimethyl-6H-thieno[3,2-f][1,2,4]triazolo[4,3-a][1,4]diazepin-6-yl]acetate]",0.58 nM,0.23 nM
"COC(=O)C[C@@H]1N=C(c2ccc(-c3ccc(C(=O)N[C@H](C)c4ccc(S(=O)(=O)Nc5ccc(C)c6c(C#N)c[nH]c56)cc4)cc3F)cc2)c2c(sc(C)c2C)-n2c(C)nnc21 [Example 85, methyl [(6S)-4-(4′-{[(1R)-1-{4-[(3-cyano-4-methyl-1H-indol-7-yl)sulfamoyl]phenyl}ethyl]carbamoyl}-2′-fluoro[1,1′-biphenyl]-4-yl)-2,3,9-trimethyl-6H-thieno[3,2-f][1,2,4]triazolo[4,3-a][1,4]diazepin-6-yl]acetate]",0.26 nM,0.074 nM
"COC(=O)C[C@@H]1N=C(c2ccc(-c3ccc(C(=O)N[C@H](C)c4ccc(S(=O)(=O)Nc5ccc(C)c6c(C#N)c[nH]c56)cc4)c(C)c3)cc2)c2c(sc(C)c2C)-n2c(C)nnc21 [Example 86, methyl [(6S)-4-(4′-{[(1R)-1-{4-[(3-cyano-4-methyl-1H-indol-7-yl)sulfamoyl]phenyl}ethyl]carbamoyl}-3′-methyl[1,1′-biphenyl]-4-yl)-2,3,9-trimethyl-6H-thieno[3,2-f][1,2,4]triazolo[4,3-a][1,4]diazepin-6-yl]acetate]",0.35 nM,0.059 nM
